Experimental data published in the NIST ThermoML archive (doi:10.1021/je300584m).
Where “and” joins values, the source holds several entries; their conditions need not be identical. Identical values can stand only once. Numbers after ± are expanded uncertainties.

Assays:
[1] = Molar enthalpy of transition or fusion; conditions: Crystal; DSC

OC1c2ccccc2-c2ccccc21 [9H-fluoren-9-ol]
Conditions	vapor or sublimation pressure
337.16 K, Crystal, Calculated from knudsen effusion weight loss	0.000106 ± 2e-05 kPa
339.13 K, Crystal, Calculated from knudsen effusion weight loss	0.000132 ± 2.1e-05 kPa
341.1 K, Crystal, Calculated from knudsen effusion weight loss	0.000163 ± 2.1e-05 kPa
343.16 K, Crystal, Calculated from knudsen effusion weight loss	0.000196 ± 2.1e-05 kPa
345.09 K, Crystal, Calculated from knudsen effusion weight loss	0.000243 ± 2.2e-05 kPa
347.09 K, Crystal, Calculated from knudsen effusion weight loss	0.000307 ± 2.3e-05 kPa
349.15 K, Crystal, Calculated from knudsen effusion weight loss	0.000385 ± 2.4e-05 kPa
350.76 K, Crystal, Closed cell (Static) method	0.00051 ± 0.00012 kPa
351.11 K, Crystal, Calculated from knudsen effusion weight loss	0.00047 ± 2.6e-05 kPa
352.75 K, Crystal, Closed cell (Static) method	0.00062 ± 0.00012 kPa
353.11 K, Crystal, Calculated from knudsen effusion weight loss	0.000579 ± 2.9e-05 kPa
354.71 K, Crystal, Closed cell (Static) method	0.00075 ± 0.00012 kPa
355.1 K, Crystal, Calculated from knudsen effusion weight loss	0.00071 ± 3.2e-05 kPa
356.59 K, Crystal, Closed cell (Static) method	0.00092 ± 0.00013 kPa
357.09 K, Crystal, Calculated from knudsen effusion weight loss	0.000884 ± 3.7e-05 kPa
358.67 K, Crystal, Closed cell (Static) method	0.00113 ± 0.00013 kPa
359.09 K, Crystal, Calculated from knudsen effusion weight loss	0.001078 ± 8.5e-05 kPa
360.98 K, Crystal, Closed cell (Static) method	0.00139 ± 0.00013 kPa
362.63 K, Crystal, Closed cell (Static) method	0.00165 ± 0.00014 kPa
364.58 K, Crystal, Closed cell (Static) method	0.00198 ± 0.00015 kPa
366.55 K, Crystal, Closed cell (Static) method	0.00238 ± 0.00016 kPa
368.53 K, Crystal, Closed cell (Static) method	0.0029 ± 0.00017 kPa
370.51 K, Crystal, Closed cell (Static) method	0.00343 ± 0.00018 kPa
372.48 K, Crystal, Closed cell (Static) method	0.00418 ± 0.00021 kPa
372.51 K, Crystal, Closed cell (Static) method	0.00419 ± 0.00021 kPa
374.53 K, Crystal, Closed cell (Static) method	0.00504 ± 0.00024 kPa
376.49 K, Crystal, Closed cell (Static) method	0.00599 ± 0.00027 kPa
378.48 K, Crystal, Closed cell (Static) method	0.00711 ± 0.00031 kPa
380.44 K, Crystal, Closed cell (Static) method	0.00855 ± 0.00036 kPa
382.39 K, Crystal, Closed cell (Static) method	0.01001 ± 0.00041 kPa
384.38 K, Crystal, Closed cell (Static) method	0.01183 ± 0.00048 kPa
386.35 K, Crystal, Closed cell (Static) method	0.01393 ± 0.00053 kPa
388.32 K, Crystal, Closed cell (Static) method	0.01662 ± 0.00058 kPa
390.28 K, Crystal, Closed cell (Static) method	0.0195 ± 0.00062 kPa
392.27 K, Crystal, Closed cell (Static) method	0.02263 ± 0.00067 kPa
394.22 K, Crystal, Closed cell (Static) method	0.02684 ± 0.00073 kPa
396.22 K, Crystal, Closed cell (Static) method	0.03155 ± 0.0008 kPa
398.16 K, Crystal, Closed cell (Static) method	0.03678 ± 0.00088 kPa
400.1 K, Crystal, Closed cell (Static) method	0.04277 ± 0.00098 kPa
402.11 K, Crystal, Closed cell (Static) method	0.05007 ± 0.0011 kPa
404.04 K, Crystal, Closed cell (Static) method	0.05782 ± 0.0012 kPa
406.06 K, Crystal, Closed cell (Static) method	0.06738 ± 0.0014 kPa
407.96 K, Crystal, Closed cell (Static) method	0.07784 ± 0.0015 kPa
409.98 K, Liquid, Closed cell (Static) method	0.1186 ± 0.0021 kPa
410 K, Crystal, Closed cell (Static) method	0.09038 ± 0.0017 kPa
411.89 K, Crystal, Closed cell (Static) method	0.104 ± 0.0019 kPa
411.93 K, Liquid, Closed cell (Static) method	0.1331 ± 0.0021 kPa
413.86 K, Crystal, Closed cell (Static) method	0.1211 ± 0.0022 kPa
413.91 K, Liquid, Closed cell (Static) method	0.15 ± 0.0022 kPa
415.85 K, Crystal, Closed cell (Static) method	0.1377 ± 0.0021 kPa
415.88 K, Liquid, Closed cell (Static) method	0.1652 ± 0.0023 kPa
417.82 K, Crystal, Closed cell (Static) method	0.1592 ± 0.0023 kPa
417.86 K, Liquid, Closed cell (Static) method	0.1822 ± 0.0025 kPa
419.78 K, Crystal, Closed cell (Static) method	0.1848 ± 0.0025 kPa
419.81 K, Liquid, Closed cell (Static) method	0.2047 ± 0.0027 kPa
421.73 K, Crystal, Closed cell (Static) method	0.2084 ± 0.0027 kPa
421.79 K, Liquid, Closed cell (Static) method	0.2266 ± 0.0029 kPa
423.71 K, Crystal, Closed cell (Static) method	0.2411 ± 0.003 kPa
423.75 K, Liquid, Closed cell (Static) method	0.2538 ± 0.0031 kPa
425.74 K, Liquid, Closed cell (Static) method	0.2828 ± 0.0034 kPa
427.7 K, Liquid, Closed cell (Static) method	0.3131 ± 0.0036 kPa and 0.3096 ± 0.0036 kPa
429.67 K, Liquid, Closed cell (Static) method	0.3457 ± 0.0039 kPa
431.58 K, Liquid, Closed cell (Static) method	0.3815 ± 0.0042 kPa
431.6 K, Liquid, Closed cell (Static) method	0.3843 ± 0.0042 kPa
433.57 K, Liquid, Closed cell (Static) method	0.4239 ± 0.0046 kPa
435.51 K, Liquid, Closed cell (Static) method	0.4605 ± 0.0049 kPa
435.52 K, Liquid, Closed cell (Static) method	0.4642 ± 0.0049 kPa
437.51 K, Liquid, Closed cell (Static) method	0.5099 ± 0.0053 kPa
439.47 K, Liquid, Closed cell (Static) method	0.5625 ± 0.0058 kPa
441.42 K, Liquid, Closed cell (Static) method	0.615 ± 0.0062 kPa

Conditions	Normal melting temperature [°C]
Crystal, DTA	155.6 ± 0.39

Conditions	Molar enthalpy of transition or fusion [kcal/mol]
[1]	5.78 ± 0.359
